Measurements reported in patent US9221795B2, “Phosphatidylinositol 3-kinase inhibitors” (Gilead Sciences, Inc., priority 2013, dated 2015).

Target: PI3Kδ (Homo sapiens (Human), UniProt O00329)
Experiment: Enzymatic activity of PI3K isoforms, TR-FRET assay (PI3Kδ)
Type: biochemical
Settings: 2× Km ATP, geometric mean if more than one value
Method: Enzymatic activity of the class I PI3K isoforms in the presence of the compounds of Table 1 and Compounds X, Y and Z was measured using a time-resolved fluorescence resonance energy transfer (TR-FRET) assay. The TR-FRET assay was used to monitor formation of the product 3,4,5-inositol triphosphate molecule (PIP3) as it competed with fluorescently labeled PIP3 for binding to the GRP-1 pleckstrin homology domain protein. An increase in […] product results in a decrease in TR-FRET signal as the labeled fluorophore is displaced from the GRP-1 protein binding site.
Class I PI3K isoforms were expressed and purified as heterodimeric recombinant proteins. All assay reagents and buffers for the TR-FRET assay were purchased from Millipore. PI3K isoforms were assayed under initial rate conditions in the presence of 25 mM Hepes (pH 7.4), and 2× Km ATP (75-500 μM), 2 μM PIP2, 5% glycerol, 5 mM MgCl2, 50 mM NaCl, 0.05% (v/v) Chaps, 1 mM dithiothreitol, 1% (v/v) DMSO at the following concentrations for each isoforms: PI3Kα, PI3Kβ, and PI3Kδ between 25 and 50 pM, and PI3Kγ at 2 nM. After an assay reaction time of 30 minutes at 25° C., reactions were terminated with a final concentration of 10 mM EDTA, 10 nM labeled-PIP3, and 35 nM Europium labeled GRP-1 detector protein before reading TR-FRET on an Envision plate reader (Ex: 340 nm; Em: 615/665 nm; […] delay and 500 μs read window).
Data were normalized based on positive ([…] wortmanin) and negative (DMSO) controls. α, β, δ, and γ IC50 values were calculated from the fit of the dose-response curves to a four-parameter equation. All IC50 values represent geometric mean values if more than one value was obtained. IC50 values were reported in units of nM.

Sequence of PI3Kδ (O00329 whole entry, canonical isoform): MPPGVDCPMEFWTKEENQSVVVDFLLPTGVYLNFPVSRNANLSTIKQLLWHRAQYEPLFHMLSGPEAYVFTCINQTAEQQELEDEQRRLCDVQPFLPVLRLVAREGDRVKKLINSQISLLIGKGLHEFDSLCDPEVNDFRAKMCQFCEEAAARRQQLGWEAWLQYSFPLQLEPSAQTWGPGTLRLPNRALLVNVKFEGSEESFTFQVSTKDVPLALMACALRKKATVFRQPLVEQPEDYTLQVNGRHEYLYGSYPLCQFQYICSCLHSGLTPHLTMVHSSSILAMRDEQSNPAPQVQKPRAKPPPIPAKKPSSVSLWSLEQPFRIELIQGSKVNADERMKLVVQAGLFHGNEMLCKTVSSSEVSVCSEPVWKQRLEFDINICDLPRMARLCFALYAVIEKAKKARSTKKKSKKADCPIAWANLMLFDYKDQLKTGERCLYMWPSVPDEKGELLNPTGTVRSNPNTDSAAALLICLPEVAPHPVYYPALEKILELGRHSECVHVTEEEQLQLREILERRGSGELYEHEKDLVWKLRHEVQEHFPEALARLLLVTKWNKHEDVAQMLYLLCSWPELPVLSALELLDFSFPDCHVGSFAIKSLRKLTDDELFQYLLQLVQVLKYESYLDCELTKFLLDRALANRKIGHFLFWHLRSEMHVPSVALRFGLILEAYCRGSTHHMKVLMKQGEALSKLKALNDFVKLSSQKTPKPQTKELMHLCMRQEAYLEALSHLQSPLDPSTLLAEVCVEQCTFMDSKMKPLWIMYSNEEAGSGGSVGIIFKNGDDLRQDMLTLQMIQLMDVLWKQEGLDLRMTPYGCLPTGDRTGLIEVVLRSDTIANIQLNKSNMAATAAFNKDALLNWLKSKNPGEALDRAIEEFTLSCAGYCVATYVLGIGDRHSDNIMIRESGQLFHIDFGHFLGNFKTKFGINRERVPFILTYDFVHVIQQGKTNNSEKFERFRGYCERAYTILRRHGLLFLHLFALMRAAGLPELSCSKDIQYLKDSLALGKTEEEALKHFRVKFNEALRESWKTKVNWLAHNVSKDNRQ
Sequence of PI3Kδ (P27986 whole entry partner, canonical isoform): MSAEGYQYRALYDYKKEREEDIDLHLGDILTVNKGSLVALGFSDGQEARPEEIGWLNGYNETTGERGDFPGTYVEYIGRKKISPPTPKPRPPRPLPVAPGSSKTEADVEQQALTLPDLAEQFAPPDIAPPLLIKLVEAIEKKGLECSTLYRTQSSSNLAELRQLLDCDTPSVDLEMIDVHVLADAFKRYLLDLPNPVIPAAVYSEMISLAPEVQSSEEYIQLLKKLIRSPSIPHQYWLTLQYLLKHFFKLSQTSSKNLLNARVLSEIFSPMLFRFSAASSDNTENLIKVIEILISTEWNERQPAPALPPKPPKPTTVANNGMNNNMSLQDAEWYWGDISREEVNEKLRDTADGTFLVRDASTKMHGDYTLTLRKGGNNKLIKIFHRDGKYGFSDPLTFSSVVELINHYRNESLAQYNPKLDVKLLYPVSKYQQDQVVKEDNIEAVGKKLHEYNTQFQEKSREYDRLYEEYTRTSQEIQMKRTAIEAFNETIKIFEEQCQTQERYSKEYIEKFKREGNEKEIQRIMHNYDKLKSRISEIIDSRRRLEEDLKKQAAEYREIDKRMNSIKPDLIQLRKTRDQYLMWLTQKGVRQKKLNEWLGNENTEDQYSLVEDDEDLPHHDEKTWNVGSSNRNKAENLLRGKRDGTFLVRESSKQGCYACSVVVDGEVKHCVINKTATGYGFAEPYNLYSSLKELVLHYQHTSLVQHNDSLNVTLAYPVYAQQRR

Row | Structure (SMILES) | IC50 [nM]
1 | C[C@@H](Nc1nc(N)nc(N)c1C#N)c1nc2c(F)ccc(Cl)c2c(=O)n1-c1cccnc1 [Compound 110, (R)-2,4-Diamino-6-((1-(5-chloro-8-fluoro-4-oxo-3-(pyridin-3-yl)-3,4-dihydroquinazolin-2-yl)ethyl)amino)pyrimidine-5-carbonitrile] | 61
2 | C[C@H](Nc1nc(N)nc(N)c1Cl)c1nc2cccc(S(C)(=O)=O)c2c(=O)n1-c1cccnc1 [Compound 49, (S)-2-(1-((2,6-diamino-5-chloropyrimidin-4-yl)amino)ethyl)-5-(methylsulfonyl)-3-(pyridin-3-yl)quinazolin-4(3H)-one] | 67
3 | CC(C)C[C@H](Nc1nc(N)nc(N)c1C#N)c1nc2cccc(Cl)c2c(=O)n1-c1cncc(F)c1 [Compound 57, (S)-2,4-Diamino-6-((1-(5-chloro-3-(5-fluoropyridin-3-yl)-4-oxo-3,4-dihydroquinazolin-2-yl)-3-methylbutyl)amino)pyrimidine-5-carbonitrile] | 14
4 | N#Cc1c(N)nc(N)nc1N[C@H](c1nc2c(C#N)cc(F)cc2c(=O)n1-c1cncc(F)c1)C1CC1 [Compound 56, (S)-2-(Cyclopropyl((2,6-diamino-5-cyanopyrimidin-4-yl)amino)methyl)-6-fluoro-3-(5-fluoropyridin-3-yl)-4-oxo-3,4-dihydroquinazoline-8-carbonitrile] | 30
5 | Cc1c(F)cncc1-n1c([C@H](C)Nc2nc(N)nc(N)c2C#N)nc2cccc(F)c2c1=O (atropisomer, axis not shown) [Compound 67, (S)-2,4-diamino-6-((1-(5-fluoro-3-(5-fluoro-4-methylpyridin-3-yl)-4-oxo-3,4-dihydroquinazolin-2-yl)ethyl)amino)pyrimidine-5-carbonitrile] | 120
6 | Cc1c(F)cncc1-n1c([C@@H](C)Nc2nc(N)nc(N)c2C#N)nc2cccc(Cl)c2c1=O (atropisomer, axis not shown) [Compound 115, (R)-2,4-diamino-6-((1-(5-chloro-3-(5-fluoro-4-methylpyridin-3-yl)-4-oxo-3,4-dihydroquinazolin-2-yl)ethyl)amino)pyrimidine-5-carbonitrile] | 4
7 | Cc1c(F)cncc1-n1c([C@@H](Nc2nc(N)nc(N)c2C#N)C2CC2)nc2cccc(Cl)c2c1=O (atropisomer, axis not shown) [Compound 69, (S)-2,4-diamino-6-(((5-chloro-3-(5-fluoro-4-methylpyridin-3-yl)-4-oxo-3,4-dihydroquinazolin-2-yl)(cyclopropyl)methyl)amino)pyrimidine-5-carbonitrile] | 60
8 | Cc1ncc(F)cc1-n1c([C@H](C)Nc2nc(N)nc(N)c2C#N)nc2cccc(Cl)c2c1=O (atropisomer, axis not shown) [Compound 44, (S)-2,4-diamino-6-(1-(5-chloro-3-(5-fluoro-2-methylpyridin-3-yl)-4-oxo-3,4-dihydroquinazolin-2-yl)ethylamino)pyrimidine-5-carbonitrile] | 34
9 | Cc1ccncc1-n1c([C@H](C)Nc2nc(N)nc(N)c2C#N)nc2cccc(C(F)(F)F)c2c1=O (atropisomer, axis not shown) [Compound 79, (S)-2,4-Diamino-6-((1-(3-(4-methylpyridin-3-yl)-4-oxo-5-(trifluoromethyl)-3,4-dihydroquinazolin-2-yl)ethyl)amino)pyrimidine-5-carbonitrile] | 2
10 | C[C@H](Nc1nc(N)nc(N)c1Cl)c1nc2cccc(F)c2c(=O)n1-c1cccnc1 [Compound 52, (S)-2-(1-((2,6-Diamino-5-chloropyrimidin-4-yl)amino)ethyl)-5-fluoro-3-(pyridin-3-yl)quinazolin-4(3H)-one] | 63
11 | Cc1cncc(-n2c([C@H](C)Nc3nc(N)nc(N)c3C#N)nc3cccc(Cl)c3c2=O)c1C (atropisomer, axis not shown) [Compound 78, (S)-2,4-diamino-6-((1-(5-chloro-3-(4,5-dimethylpyridin-3-yl)-4-oxo-3,4-dihydroquinazolin-2-yl)ethyl)amino)pyrimidine-5-carbonitrile] | 0.8
12 | C[C@H](Nc1nc(N)nc(N)c1C#N)c1nc2c(C#N)cc(F)cc2c(=O)n1-c1cccnc1 [Compound 54, (S)-2-(1-((2,6-Diamino-5-cyanopyrimidin-4-yl)amino)ethyl)-6-fluoro-4-oxo-3-(pyridin-3-yl)-3,4-dihydroquinazoline-8-carbonitrile] | 10
13 | Cc1c(F)cncc1-n1c([C@H](C)Nc2nc(N)nc(N)c2C#N)nc2c(F)ccc(Cl)c2c1=O (atropisomer, axis not shown) [Compound 74, (S)-2,4-diamino-6-((1-(5-chloro-8-fluoro-3-(5-fluoro-4-methylpyridin-3-yl)-4-oxo-3,4-dihydroquinazolin-2-yl)ethyl)amino)pyrimidine-5-carbonitrile] | 1
14 | C[C@H](Nc1nc(N)nc(N)c1Cl)c1nc2cccc(C#N)c2c(=O)n1-c1cccnc1 [Compound 63, (S)-2-(1-((2,6-diamino-5-chloropyrimidin-4-yl)amino)ethyl)-4-oxo-3-(pyridin-3-yl)-3,4-dihydroquinazoline-5-carbonitrile] | 95
15 | C[C@H](Nc1nc(N)nc(N)c1C#N)c1nc2c(F)ccc(Br)c2c(=O)n1-c1cccnc1 [Compound 64, (S)-2,4-diamino-6-((1-(5-bromo-8-fluoro-4-oxo-3-(pyridin-3-yl)-3,4-dihydroquinazolin-2-yl)ethyl)amino)pyrimidine-5-carbonitrile] | 0.6
16 | Cc1ccncc1-n1c([C@H](C)Nc2nc(N)nc(N)c2C#N)nc2cccc(C(F)(F)F)c2c1=O (atropisomer, axis not shown) [Compound 80, (S)-2,4-Diamino-6-((1-(3-(4-methylpyridin-3-yl)-4-oxo-5-(trifluoromethyl)-3,4-dihydroquinazolin-2-yl)ethyl)amino)pyrimidine-5-carbonitrile] | 27
17 | Cc1c(F)cncc1-n1c([C@@H](C)Nc2nc(N)nc(N)c2C#N)nc2cccc(Cl)c2c1=O (atropisomer, axis not shown) [Compound 114, (R)-2,4-diamino-6-((1-(5-chloro-3-(5-fluoro-4-methylpyridin-3-yl)-4-oxo-3,4-dihydroquinazolin-2-yl)ethyl)amino)pyrimidine-5-carbonitrile] | 220
18 | CC[C@H](Nc1nc(N)nc(N)c1C#N)c1nc2c(F)ccc(Br)c2c(=O)n1-c1cccnc1 [Compound 61, (S)-2,4-diamino-6-((1-(5-bromo-8-fluoro-4-oxo-3-(pyridin-3-yl)-3,4-dihydroquinazolin-2-yl)propyl)amino)pyrimidine-5-carbonitrile] | 1
19 | C[C@H](Nc1nc(N)nc(N)c1C#N)c1nc2c(F)ccc(Br)c2c(=O)n1-c1cncc(F)c1 [Compound 60, (S)-2,4-diamino-6-((1-(5-bromo-8-fluoro-3-(5-fluoropyridin-3-yl)-4-oxo-3,4-dihydroquinazolin-2-yl)ethyl)amino)pyrimidine-5-carbonitrile] | 1
20 | Cc1c(F)cncc1-n1c([C@@H](Nc2nc(N)nc(N)c2C#N)C2CC2)nc2c(F)ccc(Cl)c2c1=O (atropisomer, axis not shown) [Compound 66, (S)-2,4-Diamino-6-(((5-chloro-8-fluoro-3-(5-fluoro-4-methylpyridin-3-yl)-4-oxo-3,4-dihydroquinazolin-2-yl)(cyclopropyl)methyl)amino)pyrimidine-5-carbonitrile] | 3
21 | C[C@H](Nc1nc(N)nc(N)c1C#N)c1nc2c(F)ccc(C#N)c2c(=O)n1-c1cncc(F)c1 [Compound 62, (S)-2-(1-((2,6-diamino-5-cyanopyrimidin-4-yl)amino)ethyl)-8-fluoro-3-(5-fluoropyridin-3-yl)-4-oxo-3,4-dihydroquinazoline-5-carbonitrile] | 42
22 | C[C@@H](Nc1nc(N)nc(N)c1C#N)c1nc2c(F)ccc(Cl)c2c(=O)n1-c1cncc(F)c1 [Compound 113, (R)-2,4-Diamino-6-((1-(5-chloro-8-fluoro-3-(5-fluoropyridin-3-yl)-4-oxo-3,4-dihydroquinazolin-2-yl)ethyl)amino)pyrimidine-5-carbonitrile] | 620
23 | Cc1c(F)cncc1-n1c([C@H](C)Nc2nc(N)nc(N)c2C#N)nc2c(F)ccc(Cl)c2c1=O (atropisomer, axis not shown) [Compound 73, (S)-2,4-diamino-6-((1-(5-chloro-8-fluoro-3-(5-fluoro-4-methylpyridin-3-yl)-4-oxo-3,4-dihydroquinazolin-2-yl)ethyl)amino)pyrimidine-5-carbonitrile] | 59
24 | CC(C)C[C@H](Nc1nc(N)nc(N)c1C#N)c1nc2cccc(Cl)c2c(=O)n1-c1cccnc1 [Compound 58, (S)-2,4-Diamino-6-((1-(5-chloro-4-oxo-3-(pyridin-3-yl)-3,4-dihydroquinazolin-2-yl)-3-methylbutyl)amino)pyrimidine-5-carbonitrile] | 14
